Patent publication US20100272642A1, “PET PROBE HAVING AN ALKOXY GROUP SUBSTITUTED BY FLUORINE AND HYDROXY GROUP” (TOHOKU UNIVERSITY, priority 2007, published 2010)
Entries after “also recorded” stand apart in the source; their conditions may differ.

How the values were obtained:
[1] = Evaluation of blood-brain barrier permeability and osseous accumulation of the [18F] labeled compound in mice; assay type: in vivo, mouse; conditions: for % ID/g or ml (mean ± standard deviation), Blood plasma / % ID/g or ml (mean ± standard deviation), Bone / % ID/g or ml (mean ± standard deviation), Brain: male ICR mice, tail vein administration; for % ID/g or ml (mean ± standard deviation), Bone: bone (femur); for osseous accumulation: mice, 2, 30, 60 minutes after administration, in words; for wash-out from the brain / defluorination in vivo: mice; for wash-out from the brain: compared with [18F]BF-227; for defluorination in vivo: suggested from osseous accumulation
Experimental: The physiological saline solution containing [^18F] BF-837 or [^18F] THK-853 was administered into the tail vein of the male ICR mice (6-7 weeks of age), and blood-brain barrier permeability and osseous accumulation of each labeled compound were evaluated based on accumulation of radioactive in the brain tissue and the bone tissue at 2, 30, 60 minutes after.
The radiochemical purity of the used physiological saline containing the labeled compound used was 95% or greater, and specific activity was 18.5 to 148 GBq/μmol, and 1.11-2.22 MBq of the labeled compound per mouse was administered. In the evaluation of radiation accumulation, the ratio of radiation per unit weight of the evaluation tissue against the whole radiation administered (% Injected Dose/g of tissue; % ID/g) was used as the index. For measurement of the radiation, the gamma counter (1480 WIZARD, PerkinElmer, Inc.) was used. The experimental procedure was as follows. The labeled compound was administered into the caudal vein and dislocation in the cervical spine of the mice was conducted under the ether anesthesia at 2, 30, and 60 minutes after, and after promptly harvesting the blood from the heart, the whole brain (including the cerebellum, brain stem) and the femur were removed.

amyloid β protein = target: T1, amyloid β protein (Homo sapiens, UniProt P05067); experiment: Staining test on the brain section of patients with Alzheimer's disease; assay type: binding; conditions: 100 μM compound in 50% ethanol, 10 minutes, fluorescence microscope
T1 construct: tissue Choju Medical Institute in Fukushimura Hospital; host or cells: Paraffin-embedded post-mortem human brain sections (temporal lobe or hippocampus)
Excerpt: The procedure of […] of the compounds of the present invention on the brain section of patients with Alzheimer's disease is explained as follows.
(1) The brain samples from the temporal lobe or hippocampus of patients pathologically definitely diagnosed as having Alzheimer's disease and normal elderly individuals were used. The samples were obtained from Choju Medical Institute in Fukushimura Hospital, our collaborative research institute, and the consent for the use for research purpose was obtained from the patients' deceased family members (Fukushimura Hospital, Ethic Committee Approval No. 20).
(2) The brain tissue embedded in the paraffin was thinly sectioned into 6 or 8 μm in thickness, extended on the slide glass, and dried. The paraffined brain section was deparaffined by washing with xylene 10 minutes×2, 100% ethanol 5 minutes×2, 90% ethanol 5 minutes, and running water 10 minutes in this order.
(3) As the pretreatment of staining by the compound of the present invention, the treatment to remove autofluorescence by lipofuscin was conducted. […]
(4) From 100 μM of the compound solution of the present invention dissolved in 50% ethanol, about 150 μl was added dropwise, and was reacted for 10 minutes. After being soaked in the tap water 5 times, it was encapsulated with Flour Save Reagent (Calbiochem) and examined with a fluorescence microscope (Nikon, Eclipse 80i). […]

T1 sequence (P05067 672-713 limits assumed): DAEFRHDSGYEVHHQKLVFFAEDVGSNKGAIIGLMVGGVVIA

% ID/g or ml (mean ± standard deviation), Blood plasma ([1]; 2 minutes after) | % ID/g or ml (mean ± standard deviation), Blood plasma ([1]; 30 minutes after) | % ID/g or ml (mean ± standard deviation), Blood plasma ([1]; 60 minutes after) | % ID/g or ml (mean ± standard deviation), Bone ([1]; 2 minutes after) | % ID/g or ml (mean ± standard deviation), Bone ([1]; 30 minutes after) | % ID/g or ml (mean ± standard deviation), Bone ([1]; 60 minutes after) | % ID/g or ml (mean ± standard deviation), Brain ([1]; 2 minutes after) | % ID/g or ml (mean ± standard deviation), Brain ([1]; 30 minutes after) | % ID/g or ml (mean ± standard deviation), Brain ([1]; 60 minutes after) | wash-out from the brain [1] | defluorination in vivo [1] | binding to amyloid β protein in the brain section (amyloid β protein) | SMILES | osseous accumulation [1]
 |  |  |  |  |  |  |  |  |  |  | bound to amyloid β protein | CNc1ccc(-c2nc3ccc(OC(CO)CF)cc3s2)cc1 (stereo not shown) [THK-837] | 
 |  |  |  |  |  |  |  |  |  |  | bound to amyloid β protein | CNc1ccc(/C=C/c2ccc(OC(CO)CF)cc2)cc1 (stereo not shown) [THK-853] | 

Further lines, the molecule ahead of its results:

SMILES | % ID/g or ml (mean ± standard deviation), Blood plasma ([1]; 2 minutes after) | % ID/g or ml (mean ± standard deviation), Blood plasma ([1]; 30 minutes after) | % ID/g or ml (mean ± standard deviation), Blood plasma ([1]; 60 minutes after) | % ID/g or ml (mean ± standard deviation), Bone ([1]; 2 minutes after) | % ID/g or ml (mean ± standard deviation), Bone ([1]; 30 minutes after) | % ID/g or ml (mean ± standard deviation), Bone ([1]; 60 minutes after) | % ID/g or ml (mean ± standard deviation), Brain ([1]; 2 minutes after) | % ID/g or ml (mean ± standard deviation), Brain ([1]; 30 minutes after) | % ID/g or ml (mean ± standard deviation), Brain ([1]; 60 minutes after) | wash-out from the brain [1] | defluorination in vivo [1] | binding to amyloid β protein in the brain section (amyloid β protein) | osseous accumulation [1]
CNc1ccc(-c2nc3ccc(OC(CO)CF)cc3s2)cc1 (stereo not shown) [[^18F]THK-837] | 3.30 ± 0.17 % ID/g or ml | 1.73 ± 0.26 % ID/g or ml | 1.35 ± 0.77 % ID/g or ml | 1.80 ± 0.17 % ID/g or ml | 1.27 ± 0.11 % ID/g or ml | 1.64 ± 0.12 % ID/g or ml | 6.54 ± 0.19 % ID/g or ml | 0.94 ± 0.08 % ID/g or ml | 0.43 ± 0.03 % ID/g or ml | clearly more excellent | not subjected to defluorination |  | not observed; also recorded: scarcely observed
CN(C)c1ncc(C=Cc2nc3ccc(OCCF)cc3o2)s1 [[^18F]BF-227, 2-[2-(2-dimethylaminothiazole-5-yl)ethenyl]-6-(2-fluoroethoxy)benzoxazole, reference compound] | 2.93 ± 0.08 % ID/g or ml | 2.14 ± 0.17 % ID/g or ml | 2.09 ± 0.15 % ID/g or ml | 1.59 ± 0.27 % ID/g or ml | 4.38 ± 1.24 % ID/g or ml | 7.04 ± 0.75 % ID/g or ml | 6.05 ± 0.45 % ID/g or ml | 1.91 ± 0.05 % ID/g or ml | 1.67 ± 0.14 % ID/g or ml |  | easily subjected to defluorination |  | time dependence marked accumulation was observed
CNc1ccc(/C=C/c2ccc(OC(CO)CF)cc2)cc1 (stereo not shown) [[^18F]THK-853] | 2.81 ± 0.37 % ID/g or ml | 2.11 ± 0.50 % ID/g or ml | 1.59 ± 0.12 % ID/g or ml | 1.64 ± 0.19 % ID/g or ml | 0.98 ± 0.20 % ID/g or ml | 0.96 ± 0.04 % ID/g or ml | 7.56 ± 0.87 % ID/g or ml | 1.31 ± 014 % ID/g or ml | 0.59 ± 0.04 % ID/g or ml | clearly more excellent | not subjected to defluorination |  | not observed; also recorded: scarcely observed
